Measured values taken from ChEMBL document CHEMBL1201862, “PubChem BioAssay data set” (2004).
Activity calls are given as the source filed them.

Legend:
[1] = biological target: G-protein coupled receptor 35 (Homo sapiens, UniProt Q9HC97); assay: inhibition of zaprinast-stimulated GPR35 beta-arrestin translocation – imaging, U2OS, beta-arrestin-GFP, zaprinast agonist, primary screen (AID 2058); type: functional;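 also: antagonist potency meaning inhibition of agonist-induced arrestin redistribution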
G-protein coupled receptor 35, sequence (Q9HC97 whole entry): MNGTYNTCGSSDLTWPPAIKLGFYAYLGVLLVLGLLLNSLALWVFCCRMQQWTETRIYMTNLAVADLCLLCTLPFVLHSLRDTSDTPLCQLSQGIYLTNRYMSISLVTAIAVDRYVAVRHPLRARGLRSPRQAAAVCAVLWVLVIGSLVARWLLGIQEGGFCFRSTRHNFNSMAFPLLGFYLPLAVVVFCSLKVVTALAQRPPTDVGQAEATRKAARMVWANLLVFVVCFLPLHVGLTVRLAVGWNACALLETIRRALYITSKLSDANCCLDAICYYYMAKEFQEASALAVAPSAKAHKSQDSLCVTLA

[2] = biological target: Glucose-6-phosphate 1-dehydrogenase (Homo sapiens, UniProt P11413); assay: inhibition of Homo sapiens G6PD, dose series – biochemical, fluorescence, selectivity assay for P. falciparum G6PD inhibitor project, dose response (AID 504792); type: functional
Glucose-6-phosphate 1-dehydrogenase, sequence (P11413 whole entry): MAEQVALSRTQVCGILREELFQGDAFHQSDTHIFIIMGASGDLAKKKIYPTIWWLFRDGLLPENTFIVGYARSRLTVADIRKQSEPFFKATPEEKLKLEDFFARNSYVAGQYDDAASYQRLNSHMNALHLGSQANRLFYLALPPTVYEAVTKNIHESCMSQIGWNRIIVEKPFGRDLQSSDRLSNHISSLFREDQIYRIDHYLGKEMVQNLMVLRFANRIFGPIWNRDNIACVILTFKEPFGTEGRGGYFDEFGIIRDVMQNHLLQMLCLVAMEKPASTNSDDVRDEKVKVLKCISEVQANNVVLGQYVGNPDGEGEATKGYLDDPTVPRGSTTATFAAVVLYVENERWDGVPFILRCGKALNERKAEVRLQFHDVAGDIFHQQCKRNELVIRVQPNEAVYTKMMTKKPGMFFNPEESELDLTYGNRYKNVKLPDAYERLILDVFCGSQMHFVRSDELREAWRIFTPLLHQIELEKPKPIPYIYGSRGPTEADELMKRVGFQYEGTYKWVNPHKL

[3] = biological target: T1, Rac GTPase-activating protein 1 (Homo sapiens, UniProt Q9H0H5); assay: blockers of MgcRacGAP-driven Rac1 GTP hydrolysis – biochemical, ADP Hunter fluorescence, primary and confirmatory, confirmation (AID 624330); type: functional
T1 sequence (Q9H0H5 whole entry): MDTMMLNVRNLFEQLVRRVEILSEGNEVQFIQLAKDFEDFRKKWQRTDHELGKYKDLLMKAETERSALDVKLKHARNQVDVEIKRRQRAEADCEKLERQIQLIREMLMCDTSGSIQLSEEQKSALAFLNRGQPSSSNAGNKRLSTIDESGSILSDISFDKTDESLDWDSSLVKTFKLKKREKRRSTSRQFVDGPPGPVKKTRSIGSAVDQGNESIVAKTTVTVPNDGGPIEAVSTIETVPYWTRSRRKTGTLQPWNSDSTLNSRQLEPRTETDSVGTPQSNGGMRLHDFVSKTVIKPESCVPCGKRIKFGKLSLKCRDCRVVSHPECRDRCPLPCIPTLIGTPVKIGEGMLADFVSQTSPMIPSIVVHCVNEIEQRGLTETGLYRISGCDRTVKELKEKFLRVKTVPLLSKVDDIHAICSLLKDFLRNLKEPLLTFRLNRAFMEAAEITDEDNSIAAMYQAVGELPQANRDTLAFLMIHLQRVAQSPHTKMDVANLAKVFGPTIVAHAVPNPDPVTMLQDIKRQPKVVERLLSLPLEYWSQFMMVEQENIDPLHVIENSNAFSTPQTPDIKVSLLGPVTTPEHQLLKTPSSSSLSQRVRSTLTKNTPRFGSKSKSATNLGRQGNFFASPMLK

[4] = biological target: 1-phosphatidylinositol 4,5-bisphosphate phosphodiesterase beta-3 (Homo sapiens, UniProt Q01970); assay: Fluorescence-based biochemical high throughput dose response assay to identify inhibitors of phospholipase C isozymes (PLC-B3).
1-phosphatidylinositol 4,5-bisphosphate phosphodiesterase beta-3, sequence (Q01970 whole entry): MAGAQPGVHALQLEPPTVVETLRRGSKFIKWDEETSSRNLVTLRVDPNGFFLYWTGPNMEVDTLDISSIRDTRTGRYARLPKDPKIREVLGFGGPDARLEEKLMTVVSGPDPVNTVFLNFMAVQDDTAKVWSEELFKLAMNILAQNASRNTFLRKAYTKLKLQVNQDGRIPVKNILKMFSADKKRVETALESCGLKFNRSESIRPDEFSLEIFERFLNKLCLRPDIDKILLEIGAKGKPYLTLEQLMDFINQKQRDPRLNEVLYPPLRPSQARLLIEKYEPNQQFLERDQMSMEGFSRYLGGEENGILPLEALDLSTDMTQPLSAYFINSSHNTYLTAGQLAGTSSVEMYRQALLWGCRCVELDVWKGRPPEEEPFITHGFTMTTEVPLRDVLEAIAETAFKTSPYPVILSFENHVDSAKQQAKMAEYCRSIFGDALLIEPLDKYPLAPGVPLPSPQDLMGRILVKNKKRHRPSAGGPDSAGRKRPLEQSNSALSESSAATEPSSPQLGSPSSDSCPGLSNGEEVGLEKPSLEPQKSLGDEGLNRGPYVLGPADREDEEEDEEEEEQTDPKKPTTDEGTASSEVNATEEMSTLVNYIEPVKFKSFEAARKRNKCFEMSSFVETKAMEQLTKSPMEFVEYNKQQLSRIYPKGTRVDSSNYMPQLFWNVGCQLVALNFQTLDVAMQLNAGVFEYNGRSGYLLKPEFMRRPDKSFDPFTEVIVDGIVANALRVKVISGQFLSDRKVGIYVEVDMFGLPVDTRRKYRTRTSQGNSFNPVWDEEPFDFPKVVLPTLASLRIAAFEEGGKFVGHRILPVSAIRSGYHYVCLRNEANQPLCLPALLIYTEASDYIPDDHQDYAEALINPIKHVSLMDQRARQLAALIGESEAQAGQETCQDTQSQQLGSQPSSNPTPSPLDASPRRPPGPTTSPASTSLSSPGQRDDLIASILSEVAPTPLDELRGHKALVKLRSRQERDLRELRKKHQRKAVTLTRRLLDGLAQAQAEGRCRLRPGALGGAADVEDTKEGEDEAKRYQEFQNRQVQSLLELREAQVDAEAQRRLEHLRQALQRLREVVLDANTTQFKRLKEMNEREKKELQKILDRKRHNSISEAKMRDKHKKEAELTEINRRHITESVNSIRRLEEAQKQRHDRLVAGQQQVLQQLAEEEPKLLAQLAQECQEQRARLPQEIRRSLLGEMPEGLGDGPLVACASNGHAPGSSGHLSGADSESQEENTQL

[5] = biological target: T2, Sentrin-specific protease 8 (Homo sapiens, UniProt Q96LD8); type: functional;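 also: kinetic enzyme assay of SENP8 cleaving a Nedd8 protein substrate, dose-response confirmation of screening hits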
T2 sequence (Q96LD8 whole entry): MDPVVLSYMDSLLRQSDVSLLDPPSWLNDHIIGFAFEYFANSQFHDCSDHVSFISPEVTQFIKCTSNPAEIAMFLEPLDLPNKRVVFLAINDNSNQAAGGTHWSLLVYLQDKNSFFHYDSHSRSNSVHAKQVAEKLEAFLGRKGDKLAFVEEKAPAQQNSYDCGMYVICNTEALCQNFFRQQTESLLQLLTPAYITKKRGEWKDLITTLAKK

[6] = biological target: Transitional endoplasmic reticulum ATPase (Homo sapiens, UniProt P55072, C522A); assay: C522A mutant p97 ATPase inhibitors, dose response, counter-screen for p97 inhibitor project, biochemical, luminescence (AID 1544)
Transitional endoplasmic reticulum ATPase, sequence (P55072 2-806 C522A limits assumed): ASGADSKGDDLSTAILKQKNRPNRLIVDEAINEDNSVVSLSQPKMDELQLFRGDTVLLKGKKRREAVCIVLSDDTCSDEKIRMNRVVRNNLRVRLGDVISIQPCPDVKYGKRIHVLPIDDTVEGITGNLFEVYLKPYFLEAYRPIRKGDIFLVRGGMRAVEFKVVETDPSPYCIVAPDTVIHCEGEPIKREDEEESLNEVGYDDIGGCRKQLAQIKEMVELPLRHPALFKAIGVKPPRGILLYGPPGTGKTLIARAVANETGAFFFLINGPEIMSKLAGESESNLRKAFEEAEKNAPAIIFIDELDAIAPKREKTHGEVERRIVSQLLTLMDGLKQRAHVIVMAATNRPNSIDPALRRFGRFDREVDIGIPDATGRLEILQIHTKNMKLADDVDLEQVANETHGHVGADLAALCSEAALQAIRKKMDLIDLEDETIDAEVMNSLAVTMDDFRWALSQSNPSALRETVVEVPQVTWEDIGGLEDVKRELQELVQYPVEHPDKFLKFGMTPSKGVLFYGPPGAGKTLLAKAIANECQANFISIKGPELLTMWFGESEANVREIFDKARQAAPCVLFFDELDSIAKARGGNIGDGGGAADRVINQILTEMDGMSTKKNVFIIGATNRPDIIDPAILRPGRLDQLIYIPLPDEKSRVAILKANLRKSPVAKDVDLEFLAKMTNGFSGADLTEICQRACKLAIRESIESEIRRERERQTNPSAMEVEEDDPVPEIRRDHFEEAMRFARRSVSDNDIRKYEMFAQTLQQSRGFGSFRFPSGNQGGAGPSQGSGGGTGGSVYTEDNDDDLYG

[7] = biological target: T3, Alkaline phosphatase, tissue-nonspecific isozyme (Homo sapiens, UniProt P05186); assay: activation of tissue-nonspecific alkaline phosphatase – biochemical, TNAP isozyme, mouse IAP uHTS hits, selectivity assay for mouse IAP activator project, dose response (AID 488880); type: functional
T3 sequence (P05186 whole entry): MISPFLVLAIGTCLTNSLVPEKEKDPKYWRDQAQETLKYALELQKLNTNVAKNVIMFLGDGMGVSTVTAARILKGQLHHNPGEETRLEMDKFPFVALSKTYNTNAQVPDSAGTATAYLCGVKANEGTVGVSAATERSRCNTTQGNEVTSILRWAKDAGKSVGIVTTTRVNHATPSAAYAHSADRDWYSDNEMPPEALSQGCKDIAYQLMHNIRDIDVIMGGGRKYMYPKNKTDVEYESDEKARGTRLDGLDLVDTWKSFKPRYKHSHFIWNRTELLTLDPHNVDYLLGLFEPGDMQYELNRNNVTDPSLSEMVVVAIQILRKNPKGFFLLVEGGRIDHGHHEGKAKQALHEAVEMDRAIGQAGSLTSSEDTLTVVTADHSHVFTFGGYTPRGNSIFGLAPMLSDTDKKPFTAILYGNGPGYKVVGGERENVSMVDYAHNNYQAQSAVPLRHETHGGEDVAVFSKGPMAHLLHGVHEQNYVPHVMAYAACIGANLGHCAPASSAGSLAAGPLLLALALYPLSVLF

Aminopeptidase N = biological target: T4, Aminopeptidase N (Plasmodium falciparum FcB1/Columbia, UniProt O96935); assay: malaria alanyl aminopeptidase activity blockers – biochemical, fluorogenic H-Leu-NHMec substrate, 1536-well (AID 1445); design: species or system Plasmodium falciparum 3D7, 3D7
T4 sequence (O96935 whole entry): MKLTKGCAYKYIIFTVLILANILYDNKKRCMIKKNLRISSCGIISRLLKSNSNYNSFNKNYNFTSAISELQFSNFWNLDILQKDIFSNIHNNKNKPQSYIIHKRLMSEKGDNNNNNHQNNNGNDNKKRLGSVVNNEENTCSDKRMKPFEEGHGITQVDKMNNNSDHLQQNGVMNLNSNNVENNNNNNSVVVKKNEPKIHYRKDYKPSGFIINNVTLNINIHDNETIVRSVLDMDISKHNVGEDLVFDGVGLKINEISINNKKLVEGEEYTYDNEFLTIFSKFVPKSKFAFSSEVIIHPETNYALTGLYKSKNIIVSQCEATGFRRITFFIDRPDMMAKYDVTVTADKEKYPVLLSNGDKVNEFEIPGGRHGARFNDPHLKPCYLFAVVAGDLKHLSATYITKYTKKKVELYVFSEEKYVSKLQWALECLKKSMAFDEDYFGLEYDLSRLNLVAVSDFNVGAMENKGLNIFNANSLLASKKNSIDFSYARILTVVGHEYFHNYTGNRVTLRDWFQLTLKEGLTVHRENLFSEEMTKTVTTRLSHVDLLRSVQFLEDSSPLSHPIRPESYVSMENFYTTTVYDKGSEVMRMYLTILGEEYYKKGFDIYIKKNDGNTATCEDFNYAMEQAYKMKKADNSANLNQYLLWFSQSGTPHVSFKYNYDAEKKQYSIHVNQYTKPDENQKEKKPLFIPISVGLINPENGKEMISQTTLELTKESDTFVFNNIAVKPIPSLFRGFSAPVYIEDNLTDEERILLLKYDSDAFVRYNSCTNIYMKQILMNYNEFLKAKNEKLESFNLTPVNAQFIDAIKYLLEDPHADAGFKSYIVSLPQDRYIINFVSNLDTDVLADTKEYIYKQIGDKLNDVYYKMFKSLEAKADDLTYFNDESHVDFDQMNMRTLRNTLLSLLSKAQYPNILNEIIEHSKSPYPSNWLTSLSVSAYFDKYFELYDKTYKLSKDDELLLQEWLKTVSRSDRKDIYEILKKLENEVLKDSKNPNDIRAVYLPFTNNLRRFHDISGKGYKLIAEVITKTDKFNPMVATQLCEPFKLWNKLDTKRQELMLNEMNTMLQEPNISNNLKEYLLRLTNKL

## CCc1nnc(NS(=O)(=O)c2ccc(NC(=S)NC(=O)/C=C/c3ccc(C(C)C)cc3)cc2)s1
[1]
  IC50: 1.59 µM (active)

## COc1ccc(S(=O)(=O)Nc2cc(SCC(=O)O)c(O)c3ccccc23)cc1
[2]
  IC50: 21.1 µM (inactive)

## O=C1C(Nc2ccc(O)cc2)=C/C(=N/S(=O)(=O)c2cccs2)c2ccccc21
[3]
  IC50: 41.8 µM (active)
[4]
  IC50: > 40.8 µM (inactive)

## COC(=O)C(O)(c1c(C)[nH]n(-c2ccccc2)c1=O)C(F)(F)F (stereo not drawn)
[5]
  IC50: 1.15 µM (active)

## CC1CC(=O)c2c(cc3c(-c4c(O)cc(O)c5c(O)c6c(cc45)OC(C)CC6=O)c(O)cc(O)c3c2O)O1 (stereo not drawn) [CEPHALOCHROMIN]
[6]
  IC50: > 50 µM (not active)
[7]
  EC50: 26.7 µM (active)
Aminopeptidase N
  IC50: 64.9 µM (active)
